Molecular target: T1, human liver GK (Homo sapiens, UniProt P35557)
T1 construct: GST (glutathione S-transferase) (N); made in house; host or cells: E. coli
T1 sequence (P35557 1-466 isoform P35557-2): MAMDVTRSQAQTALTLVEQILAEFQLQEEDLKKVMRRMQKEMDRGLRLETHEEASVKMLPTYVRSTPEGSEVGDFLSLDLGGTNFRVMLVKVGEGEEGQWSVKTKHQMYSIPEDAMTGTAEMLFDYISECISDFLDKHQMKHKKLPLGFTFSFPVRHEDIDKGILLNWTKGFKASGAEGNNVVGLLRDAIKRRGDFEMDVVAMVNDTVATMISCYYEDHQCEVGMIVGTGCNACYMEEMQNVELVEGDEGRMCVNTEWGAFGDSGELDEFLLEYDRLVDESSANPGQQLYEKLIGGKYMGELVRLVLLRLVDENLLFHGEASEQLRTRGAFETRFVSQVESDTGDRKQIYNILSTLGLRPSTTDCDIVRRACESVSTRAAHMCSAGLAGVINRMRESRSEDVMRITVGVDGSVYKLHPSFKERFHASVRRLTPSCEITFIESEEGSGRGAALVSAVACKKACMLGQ
Assay: GK activation test
Type: biochemical
Settings: test compound concentration needed to activate 50% of maximum activation ability; 4 mM 14C-labeled glucose, 2 mM ATP, room temperature, 20 minutes
Summary of the method: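 GST-tagged human liver GK from E. coli (0.24 μg/well) with 4 mM 14C-glucose, 2 mM ATP in Hepes-KOH pH 7.1, KCl, MgCl2, DTT, 1% DMSO, 20 min room temperature. Labeled glucose 6-phosphate captured on anion resin, eluted and counted. EC50 = concentration giving half of maximal activation.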

SMILES	EC50 [nM]
COc1cc(F)c(/C(=C\[C@H]2CCC(=O)N2)c2ccc(C3CC3)c(=O)[nH]2)cc1Cl [Example 4-274, 6-{(E)-1-(5-Chloro-2-fluoro-4-methoxyphenyl)-2-[(2R)-5-oxopyrrolidin-2-yl]ethenyl}-3-cyclopropylpyridin-2(1H)-one]	10 to 500
CC(C)Oc1ccc(/C(=C\[C@H]2CCC(=O)N2)c2ccc(C3CC3)c(=O)[nH]2)cc1F [Example 4-275, 3-Cyclopropyl-6-{(E)-1-[3-fluoro-4-(propan-2-yloxy)phenyl]-2-[(2R)-5-oxopyrrolidin-2-yl]ethenyl}pyridin-2(1H)-one]	10 to 500
CC(C)Oc1ccc(/C(=C\[C@H]2CCC(=O)N2)c2ccc(C3CC3)c(=O)[nH]2)cc1 [Example 4-276, 3-Cyclopropyl-6-{(E)-2-[(2R)-5-oxopyrrolidin-2-yl]-1-[4-(propan-2-yloxy)phenyl]ethenyl}pyridin-2(1H)-one]	10 to 500
O=C1CC[C@H](/C=C(\c2ccc(CO)cc2)c2ccc(Cl)c(=O)[nH]2)N1 [Example 4-277, 3-Chloro-6-{(E)-1-[4-(hydroxymethyl)phenyl]-2-[(2R)-5-oxopyrrolidin-2-yl]ethenyl}pyridin-2(1H)-one]	3000 to 10000
CCCOc1ccc(/C(=C\[C@H]2CCC(=O)N2)c2ccc(C3CC3)c(=O)[nH]2)cc1 [Example 4-279, 3-Cyclopropyl-6-[(E)-2-[(2R)-5-oxopyrrolidin-2-yl]-1-(4-propoxyphenyl)ethenyl]pyridin-2(1H)-one]	10 to 500
CCCOc1ccc(/C(=C\[C@H]2CCC(=O)N2)c2ccc(C3CC3)c(=O)[nH]2)cc1Cl [Example 4-280, 6-{(E)-1-(3-Chloro-4-propoxyphenyl)-2-[(2R)-5-oxopyrrolidin-2-yl]ethenyl}-3-cyclopropylpyridin-2(1H)-one]	10 to 500
O=C1CC[C@H](/C=C(\c2ccc(OC(F)F)c(Cl)c2)c2ccc(C3CC3)c(=O)[nH]2)N1 [Example 4-281, 6-{(E)-1-[3-Chloro-4-(difluoromethoxy)phenyl]-2-[(2R)-5-oxopyrrolidin-2-yl]ethenyl}-3-cyclopropylpyridin-2(1H)-one]	10 to 500
CCOc1ccc(/C(=C\[C@H]2CCC(=O)N2)c2ccc(C3CC3)c(=O)[nH]2)c(F)c1F [Example 4-282, 3-Cyclopropyl-6-{(E)-1-(4-ethoxy-2,3-difluorophenyl)-2-[(2R)-5-oxopyrrolidin-2-yl]ethenyl}pyridin-2(1H)-one]	10 to 500
O=C1CC[C@H](/C=C(\c2ccc(OC3CCCC3)cc2)c2ccc(C3CC3)c(=O)[nH]2)N1 [Example 4-283, 6-{(E)-1-[4-(Cyclopentyloxy)phenyl]-2-[(2R)-5-oxopyrrolidin-2-yl]ethenyl}-3-cyclopropylpyridin-2(1H)-one]	10 to 500
CCOc1ccc(/C(=C\[C@H]2CCC(=O)N2)c2ccc(C3CC3)c(=O)[nH]2)cc1F [Example 4-284, 3-Cyclopropyl-6-{(E)-1-(4-ethoxy-3-fluorophenyl)-2-[(2R)-5-oxopyrrolidin-2-yl]ethenyl}pyridin-2(1H)-one]	10 to 500
N#Cc1ccc(/C(=C\[C@H]2CCC(=O)N2)c2ccc(C3CC3)c(=O)[nH]2)cc1 [Example 4-285, 4-{(E)-1-(5-Cyclopropyl-6-oxo-1,6-dihydropyridin-2-yl)-2-[(2R)-5-oxopyrrolidin-2-yl]ethenyl}benzonitrile]	500 to 3000
CCOc1ccc(/C(=C\[C@H]2CCC(=O)N2)c2ccc(C3CC3)c(=O)[nH]2)c(Cl)c1 [Example 4-286, 6-{(E)-1-(2-Chloro-4-ethoxyphenyl)-2-[(2R)-5-oxopyrrolidin-2-yl]ethenyl}-3-cyclopropylpyridin-2(1H)-one]	10 to 500
O=C1CC[C@H](/C=C(\c2ccc(OCCF)cc2)c2ccc(C3CC3)c(=O)[nH]2)N1 [Example 4-287, 3-Cyclopropyl-6-{(E)-1-[4-(2-fluoroethoxy)phenyl]-2-[(2R)-5-oxopyrrolidin-2-yl]ethenyl}pyridin-2(1H)-one]	10 to 500
N#Cc1cc(/C(=C\[C@H]2CCC(=O)N2)c2ccc(C3CC3)c(=O)[nH]2)ccc1F [Example 4-288, 5-{(E)-1-(5-Cyclopropyl-6-oxo-1,6-dihydropyridin-2-yl)-2-[(2R)-5-oxopyrrolidin-2-yl]ethenyl}-2-fluorobenzonitrile]	3000 to 10000
O=C1CC[C@H](/C=C(\c2ccc(S(=O)(=O)C3CC3)c(Cl)c2)c2ccc(C3CC3)c(=O)[nH]2)N1 [Example 4-289, 6-{(E)-1-[3-Chloro-4-(cyclopropylsulfonyl)phenyl]-2-[(2R)-5-oxopyrrolidin-2-yl]ethenyl}-3-cyclopropylpyridin-2(1H)-one]	10 to 500
O=C1CC[C@H](/C=C(\c2ccc(S(=O)(=O)C3CC3)cc2)c2ccc(C3CC3)c(=O)[nH]2)N1 [Example 4-290, 3-Cyclopropyl-6-{(E)-1-[4-(cyclopropylsulfonyl)phenyl]-2-[(2R)-5-oxopyrrolidin-2-yl]ethenyl}pyridin-2(1H)-one]	10 to 500

SMILES	EC50 [nM]
O=C1CC[C@H](/C=C(\c2ccc(S(=O)(=O)Cc3ccccc3)cc2)c2ccc(C3CC3)c(=O)[nH]2)N1 [Example 4-291, 6-{(E)-1-[4-(Benzylsulfonyl)phenyl]-2-[(2R)-5-oxopyrrolidin-2-yl]ethenyl}-3-cyclopropylpyridin-2(1H)-one]	10 to 500
CN(C)S(=O)(=O)c1ccc(/C(=C\[C@H]2CCC(=O)N2)c2ccc(C3CC3)c(=O)[nH]2)cc1 [Example 4-292, 4-{(E)-1-(5-Cyclopropyl-6-oxo-1,6-dihydropyridin-2-yl)-2-[(2R)-5-oxopyrrolidin-2-yl]ethenyl}-N,N-dimethylbenzenesulfonamide]	10 to 500
O=C1CC[C@H](/C=C(\c2ccc(S(=O)(=O)Cc3ccccc3)c(Cl)c2)c2ccc(C3CC3)c(=O)[nH]2)N1 [Example 4-293, 6-{(E)-1-[4-(Benzylsulfonyl)-3-chlorophenyl]-2-[(2R)-5-oxopyrrolidin-2-yl]ethenyl}-3-cyclopropylpyridin-2(1H)-one]	10 to 500
CC(C)(C)c1ccc(C(C[C@H]2CCC(=O)N2)c2ccc(C3CC3)c(=O)[nH]2)cc1 (stereo partly drawn) [Example 4-358, 6-{1-(4-tert-Butylphenyl)-2-[(2R)-5-oxopyrrolidin-2-yl]ethyl}-3-cyclopropylpyridin-2(1H)-one]	10 to 500
O=C1CC[C@H](/C=C(\c2ccc(Cl)cc2)c2ccc(-c3cn[nH]c3)c(=O)[nH]2)N1 [Example 4-359, 6-{(E)-1-(4-Chlorophenyl)-2-[(2R)-5-oxopyrrolidin-2-yl]ethenyl}-3-(1H-pyrazol-4-yl)pyridin-2(1H)-one]	10 to 500
O=C1CC[C@H](/C=C(\c2ccc(C(F)(F)F)cc2)c2ccc(-c3cn[nH]c3)c(=O)[nH]2)N1 [Example 4-360, 6-{(E)-2-[(2R)-5-Oxopyrrolidin-2-yl]-1-[4-(trifluoromethyl)phenyl]ethenyl}-3-(1H-pyrazol-4-yl)pyridin-2(1H)-one]	10 to 500
CC(C)(C)c1ccc(/C(=C\[C@H]2CCC(=O)N2)c2ccc(-c3cn[nH]c3)c(=O)[nH]2)cc1 [Example 4-361, 6-{(E)-1-(4-tert-Butylphenyl)-2-[(2R)-5-oxopyrrolidin-2-yl]ethenyl}-3-(1H-pyrazol-4-yl)pyridin-2(1H)-one]	10 to 500
Cc1ccc(/C(=N/OC2CCCC2)c2ccc(S(C)(=O)=O)cc2)[nH]c1=O [Example 5-3, (E)-6-{(Cyclopentyloxyimino)[4-(methylsulfonyl)phenyl]methyl}-3-methylpyridin-2(1H)-one]	3000 to 10000
CC(C)(C)c1ccc(/C(=C\CO)c2ccc(Cl)c(=O)[nH]2)cc1 [Example 6-1, 6-[(1E)-1-(4-tert-Butylphenyl)-3-hydroxyprop-1-en-1-yl]-3-chloropyridin-2(1H)-one]	3000 to 10000
CC(C)(C)c1ccc(/C(=C\CN2CCOC2=O)c2ccc(Cl)c(=O)[nH]2)cc1 [Example 6-2, 6-[(1E)-1-(4-tert-Butylphenyl)-3-(2-oxo-1,3-oxazolidin-3-yl)prop-1-en-1-yl]-3-chloropyridin-2(1H)-one]	10 to 500
CC(C)(C)c1ccc(/C(=C\CN2CCCC2=O)c2ccc(Cl)c(=O)[nH]2)cc1 [Example 6-3, 6-[(1E)-1-(4-tert-Butylphenyl)-3-(2-oxopyrrolidin-1-yl)prop-1-en-1-yl]-3-chloropyridin-2(1H)-one]	10 to 500
CC(C)(C)c1ccc(/C(=C\CN2CCCCC2=O)c2ccc(Cl)c(=O)[nH]2)cc1 [Example 6-4, 6-[(1E)-1-(4-tert-Butylphenyl)-3-(2-oxopiperidin-1-yl)prop-1-en-1-yl]-3-chloropyridin-2(1H)-one]	500 to 3000
CC(C)(C)c1ccc(/C(=C\CN2CCOCC2)c2ccc(Cl)c(=O)[nH]2)cc1 [Example 6-5, 6-[(1E)-1-(4-tert-Butylphenyl)-3-(morpholin-4-yl)prop-1-en-1-yl]-3-chloropyridin-2(1H)-one]	3000 to 10000
CC(C)(C)c1ccc(/C(=C\CN2CCCCCC2=O)c2ccc(Cl)c(=O)[nH]2)cc1 [Example 6-6, 1-[(2E)-3-(4-tert-Butylphenyl)-3-(5-chloro-6-oxo-1,6-dihydropyridin-2-yl)prop-2-en-1-yl]azepan-2-one]	500 to 3000
CC(C)(C)c1ccc(/C(=C\CN2CCCS2(=O)=O)c2ccc(Cl)c(=O)[nH]2)cc1 [Example 6-7, 6-[(1E)-1-(4-tert-Butylphenyl)-3-(1,1-dioxido-1,2-thiazolidin-2-yl)prop-1-en-1-yl]-3-chloropyridin-2(1H)-one]	500 to 3000
